Measured values taken from PMC10504260, “Identification of a c-type heme oxygenase and its function during acclimation of cyanobacteria to nitrogen fluctuations” (Communications Biology, 2023).

Experiments:
Ssr1698 (cHO) [1] = target: T1, Ssr1698 (cHO) (Synechocystis sp. PCC 6803, UniProt P73129); assay: HPLC and LC-MS of reaction product; assay type: biochemical; details: substrate MP-11 (c-type heme), 10 mM ascorbic acid, 2 µM catalase, PBS pH 7.4, 2 h
T1 construct: full-length 96-residue protein; GST fusion from pGEX-5X-1 (BamHI/XhoI) in E. coli BL21(DE3) pLysS, GST tag removed by Factor Xa, SEC; dimer
T1 sequence (P73129 1-96): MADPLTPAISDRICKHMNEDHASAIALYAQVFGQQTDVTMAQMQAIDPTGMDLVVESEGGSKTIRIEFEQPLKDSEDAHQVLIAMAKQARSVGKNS

Ssr1698 (cHO) [2] = target: T1, Ssr1698 (cHO); assay: UV-visible assay of MP-11 (c-type heme) degradation with added biliverdin IXα; assay type: biochemical; details: product inhibition; substrate MP-11, ascorbate, catalase, PBS pH 7.4
[3] = target: Ssr1698 (c-type heme oxygenase, cHO), purified tag-less apo-Ssr1698 (Synechocystis sp. strain PCC 6803); assay: SEC; Superdex 200 Increase 10/300GL equilibrated with PBS buffer (pH 7.4); tag-less Ssr1698 after removal of GST by Factor Xa
[4] = target: Ssr1698 (c-type heme oxygenase, cHO), purified tag-less apo-Ssr1698 (Synechocystis sp. strain PCC 6803); assay: native gel or EMSA; clear native-PAGE (CN-PAGE) of purified tag-less Ssr1698; 5-12.5% acrylamide gradient gel, 0.01% DM and 0.025% deoxycholate in the cathode buffer, 4 °C

Row | Molecule | HPLC and LC-MS of reaction product (Ssr1698 (cHO) [1]) | suppression of c-type heme degradation (Ssr1698 (cHO) [2]) | stoichiometry N [3] | stoichiometry N [4]
1 | C=CC1=C(C)C(=Cc2[nH]c(C=C3N=C(C=C4NC(=O)C(C)=C4C=C)C(C)=C3CCC(=O)O)c(CCC(=O)O)c2C)NC1=O [biliverdin IXα] | biliverdin IXα molecule, 11-amino acid peptide and free iron were identified in the reaction product | degradation of c-type heme is significantly suppressed after the addition of biliverdin IXα | – | –
2 | Ssr1698 (c-type heme oxygenase, cHO), purified tag-less apo-Ssr1698 (enzyme) | – | – | 2 | 2
